The subject of series [1] is HT-29. Description: Antiproliferative activity against human HT-29 cells assessed as reduction in cell growth by MTT assay. Type of series: functional, cell-based. In general terms: Formazan colour is commonly taken as a measure of viable cells.
Series [2] deals with MCF7. Description: Antiproliferative activity against human MCF7 cells assessed as reduction in cell growth by MTT assay. Type of series: functional, cell-based.
Series [3] deals with A549. Description: Antiproliferative activity against human A549 cells assessed as reduction in cell growth by MTT assay. Type of series: functional, cell-based.
A further series deals with PANC-1. Briefly: Antiproliferative activity against human PANC-1 cells by MTT assay. Type of series: functional, cell-based.
The subject of series [4] is A549. Briefly: Antiproliferative activity against A549 cells assessed as reduction in cell growth by MTT assay. Type of series: functional, cell-based. The settings on record: Homo sapiens.
For series [5], the system named is NCI-H1299. Description: Antiproliferative activity against human NCI-H1299 cells assessed as reduction in cell growth by MTT assay. Type of series: functional, cell-based.
The nature of series [6]: Antiproliferative activity against MRC5 cells assessed as reduction in cell growth by MTT assay. The settings on record: human. Type of series: toxicity, cell-based.
The test system of series [7] is MCF7. Briefly: Antiproliferative activity against MCF7 cells assessed as reduction in cell growth by MTT assay. The settings on record: Homo sapiens. Type of series: functional, cell-based.
The test system of a further series is NCI-H460. Briefly: Antiproliferative activity against human NCI-H460 cells assessed as reduction in cell growth by MTT assay. Type of series: functional, cell-based.
A short description of series [8]: Growth inhibition of human Melanoma cell. Type of series: functional.
Series [9] in a line: Growth inhibition of human Non-small cell lung cancer cell line. Type of series: functional.
In another series the test system is CNS carcinoma cell. Briefly: Growth inhibition of human CNS carcinoma cell. Type of series: functional.
Series [10] can be described thus: Growth inhibition of human Colon cancer cell line. Type of series: functional.
The test system of a further series is Leukemia cell. Description: Growth inhibition of human Leukemia cell. Type of series: functional.
Another series concerns MDA-MB-231. Briefly: Antiproliferative activity against human MDA_MB-231 cells. Type of series: functional, cell-based.
Series [11] is described as follows: Antiproliferative activity against mouse 4T1-Luc cells. Type of series: functional, cell-based.
The next series deals with HeLa. Briefly: Cytotoxicity against human HeLa cells assessed as reduction in cell growth incubated for 24 hrs by MTT assay. Type of series: functional, cell-based.
For another series, the system named is Caco-2. Briefly: Cytotoxicity against human Caco-2 cells assessed as reduction in cell growth incubated for 24 hrs by MTT assay. Type of series: functional, cell-based. The settings on record: Caco-2, 24 h.
Series [12] deals with HCT-116. Description: Cytotoxicity against human HCT-116 cells assessed as reduction in cell growth incubated for 24 hrs by MTT assay. Type of series: functional, cell-based. The settings on record: HCT-116, 24 h.
A short description of series [13]: Anticancer activity against human UKF-NB-3 cells by MTT assay. Type of series: functional, cell-based.
Series [14] deals with A549. Description: Anticancer activity against human A549 cells by MTT assay. Type of series: functional, cell-based.
Series [15] has as its system NCI-H1299. Description: Anticancer activity against human NCI-H1299 cells by MTT assay. Type of series: functional, cell-based.
For series [16], the system named is MCF7. Description: Cytotoxicity against human MCF7 cells after 24 hrs by MTT assay. Type of series: functional, cell-based. The settings on record: MCF7, 24 h.
Series [17] is described as follows: Cytotoxicity against human MCF-10A cells measured after 24 hrs by MTT assay. Type of series: toxicity, cell-based.
Series [18] deals with HepG2. Briefly: Cytotoxicity against human HepG2 cells after 24 hrs by MTT assay. Type of series: functional, cell-based. The settings on record: HepG2, 24 h.
Series [19] relates to HCT-116. Briefly: Cytotoxicity against human HCT-116 cells after 24 hrs by MTT assay. Type of series: functional, cell-based. The settings on record: HCT-116, 24 h.
Another series has as its system SNU-C1. Description: Anticancer activity against human SNU-C1 cells. Type of series: functional, cell-based.
Another series deals with RKO. Briefly: Anticancer activity against human RKO cells. Type of series: functional, cell-based.
In series [20] the test system is HT-29. Description: Anticancer activity against human HT-29 cells. Type of series: functional, cell-based.
A further series deals with SW837. Briefly: Anticancer activity against human SW837 cells. Type of series: functional, cell-based.
The next series concerns SW480. Briefly: Anticancer activity against human SW480 cells. Type of series: functional, cell-based.
A further series deals with COLO 320. Description: Anticancer activity against human COLO 320 cells. Type of series: functional, cell-based.
Series [21] relates to HCT-116. Briefly: Anticancer activity against human HCT-116 cells. Type of series: functional, cell-based.
Series [22] can be described thus: Inhibition of TK (unknown origin). The arrangement: species or system Homo sapiens.
A further series deals with DLD-1. Description: Anticancer activity against human DLD-1 cells. Type of series: functional, cell-based.
Series [23] is described as follows: Antiproliferative activity against human MCF7/MX cells assessed as reduction in cell growth incubated for 24 hrs by MTT assay. Type of series: functional, cell-based.
Series [24] deals with A549. Briefly: Antiproliferative activity against human A549 cells assessed as reduction in cell growth incubated for 24 hrs by MTT assay. Type of series: functional, cell-based. The settings on record: A549, 24 h.
The subject of series [25] is MCF7. Briefly: Antiproliferative activity against human MCF7 cells assessed as reduction in cell growth incubated for 24 hrs by MTT assay. Type of series: functional, cell-based. The settings on record: MCF7, 24 h.
Series [26] has as its system HepG2. Briefly: Antiproliferative activity against human HepG2 cells assessed as reduction in cell growth incubated for 24 hrs by MTT assay. The settings on record: HepG2, 24 h. Type of series: functional, cell-based.
The test system of the next series is DU-145. Description: Anticancer activity against human DU-145 cells. Type of series: functional, cell-based.
A further series has as its system PC-3. Briefly: Anticancer activity against human PC-3 cells. Type of series: functional, cell-based.
Series [27] relates to HepG2. Briefly: Anticancer activity against human HepG2 cells. Type of series: functional, cell-based.
Series [28] deals with MCF7. Description: Anticancer activity against human MCF7 cells. Type of series: functional, cell-based.
Series [29] deals with MCF7. Description: Antiproliferative activity against human MCF7 cells assessed as reduction in cell viability incubated for 72 hrs by MTT assay. Type of series: functional, cell-based. The settings on record: MCF7, 72 h.
For series [30], the system named is A549. Briefly: Antiproliferative activity against human A549 cells assessed as reduction in cell viability incubated for 72 hrs by MTT assay. Type of series: functional, cell-based. The settings on record: A549, 72 h.
Series [31] concerns A549. Description: Cytotoxicity against human A549 cells. Type of series: functional, cell-based.
A further series relates to Jurkat. Description: Antiproliferative activity against human Jurkat cells assessed as reduction in cell viability incubated for 72 hrs by MTT assay. Type of series: functional, cell-based.
Series [32] deals with HCT-116. Briefly: Cytotoxicity against human HCT-116 cells assessed as reduction in cell viability incubated for 24 hrs by MTT assay. Type of series: functional, cell-based. The settings on record: HCT-116, 24 h.
Series [33] has as its system HT-29. Description: Antiproliferative activity against human HT-29 cells assessed as reduction in cell viability incubated for 72 hrs by MTT assay. Type of series: functional, cell-based. The settings on record: HT-29, 72 h.
Series [34] relates to MCF7. Briefly: Cytotoxicity against human MCF7 cells assessed as reduction in cell growth incubated for 24 hrs by MTT assay. Type of series: functional, cell-based. The settings on record: MCF7, 24 h.
Series [35] is described as follows: Cytotoxicity against HUVEC cells. Type of series: toxicity, cell-based. The settings on record: human.
The next series deals with HL-60. Briefly: Cytotoxicity against human HL-60 cells assessed as reduction in cell growth incubated for 24 hrs by MTT assay. The settings on record: HL-60, 24 h. Type of series: functional, cell-based.
A further series concerns RS4-11. Briefly: Antiproliferative activity against human RS4-11 cells assessed as reduction in cell viability incubated for 72 hrs by MTT assay. Type of series: functional, cell-based. The settings on record: RS4-11, 72 h.

In brackets after ≈: the same amount, converted by molar mass.

Consider `COc1ccccc1-c1nc(-c2ccccc2)c(-c2ccccc2)n1-c1ccc(S(N)(=O)=O)cc1`, for which the IC50 stood at 2.4 µM in the series on HT-29 [1], 2.1 µM in the series with MCF7 [2], 2.4 µM with A549 [3] and 2.2 µM with PANC-1.
Regarding `CN(C)CCCOc1ccc(-c2nc(-c3ccc(Br)o3)[nH]c2-c2ccc(OCCCN(C)C)cc2)cc1`, the IC50 with A549 [4] was 5.82 µM; in the series with NCI-H1299 [5] it was < 0.1 µM; in series [6], 8.42 µM; in the series on MCF7 [7] it was 6.91 µM; in the series with NCI-H460 it was 4.16 µM.
As to `Oc1ccc(/C=C/c2cc(O)cc(O)c2)cc1` [RESVERATROL], the GI50 in series [8] came out at 64.6 µM; in [9] it was 61.7 µM; in the series with CNS carcinoma cell it was 70.8 µM; in series [10] it was 56 µM; with Leukemia cell it was 15.9 µM.
Consider `NS(=O)(=O)c1ccc(-n2c(-c3ccccc3Br)nc(-c3ccccc3)c2-c2ccccc2)cc1`, for which the IC50 in the series with HT-29 [1] amounted to 3.1 µM; with MCF7 [2], 2.7 µM; with A549 [3] it was 2.8 µM; in the series with PANC-1 it was 2.5 µM.
Turning to `Cc1[nH]c(SCc2ccccc2)nc1Cc1ccccc1`, the IC50 in the series on MDA-MB-231 was determined as 8.26 µM; in series [11], 8.03 µM.
For `O=C(O)c1ccc(C(=O)NCn2cc(CSc3nc(-c4ccccc4)c(-c4ccccc4)n3-c3ccccc3)nn2)cc1`, the IC50 worked out at 6.87 µM with HeLa, 4.67 µM with Caco-2 and 16.8 µM with HCT-116 [12].
For the molecule `O=C(Cn1cnc(-c2ccccc2)c1-c1ccccc1)NCCOC(=O)C12CC3CC(CC(C3)C1)C2`, the IC50 in series [13] was 8.53 mg/L (≈ 17.6 µM); in the series with A549 [14] it was 43.2 mg/L (≈ 89.3 µM); with NCI-H1299 [15] it was > 100 mg/L.
Turning to `CC(=O)O[C@@]12CO[C@@H]1C[C@H](O)[C@@]1(C)C(=O)[C@H](O)C3=C(C)[C@@H](OC(=O)[C@H](O)[C@@H](NC(=O)OC(C)(C)C)c4ccccc4)C[C@@](O)([C@@H](OC(=O)c4ccccc4)[C@H]21)C3(C)C` [DOCETAXEL ANHYDROUS], the results for the IC50 in the series with MCF7 [16], with HepG2 [18] and with HCT-116 [19] were 11.1 µM, 8.13 µM and 14 µM, respectively. The molecule also came in with an IC50 at 24 h in [17] of 33.2 µM.
With `COc1cccc2c1C=C(c1ncc(-c3ccc(OCc4ccccc4)cc3)[nH]1)CO2`, the concentration for half-maximal inhibition (IC50) in the series with SNU-C1, in the series on RKO, with HT-29 [20], in the series on SW837, with SW480 and with COLO 320 was 0.37 µM throughout. Further, the figures for the IC50 (with HCT-116 [21]; in series [22]; in the series with DLD-1) were 0.37 µM, 4.73 µM and 0.37 µM, respectively.
Turning to `CCSc1nc(/C=C/C(=O)c2cc(OC)c(OC)c(OC)c2)cn1Cc1ccccc1`, the IC50 is 20.2 µM in series [23], 7.05 µM in the series on A549 [24], 9.88 µM in the series on MCF7 [25] and 22 µM in the series on HepG2 [26].
As for `CN(C)CCCOc1ccc(-c2nc(-c3ccc([N+](=O)[O-])o3)[nH]c2-c2ccc(OCCCN(C)C)cc2)cc1`, the IC50 in the series with A549 [4] is 6.71 µM; with NCI-H1299 [5] it was < 0.1 µM; in [6], 7.1 µM; with MCF7 [7], 6.75 µM; with NCI-H460, 6.95 µM.
For `CCOC(=O)N1CCN(c2c([N+](=O)[O-])nc(CC)n2CC)CC1`, the IC50 with DU-145 was 42.2 µM; in the series with PC-3 it was 49.6 µM; with HepG2 [27], 5.6 µM; with MCF7 [28], 29.6 µM.
As for `COc1ccc(/C=C\c2cc(OC)c(OC)c(OC)c2)cc1O` [COMBRETASTATIN A4], the IC50 in series [23] worked out at 1.49 µM; with MCF7 [29] it was 0.005 µM; with A549 [30] it was 3.1 µM; with A549 [24], 0.86 µM; in the series with A549 [31], 0.048 µM; in the series on MCF7 [25] it was 0.43 µM. Besides, the IC50 with Jurkat amounted to 0.0008 µM; with HCT-116 [32], 2.63 µM; in the series with HT-29 [33], 0.18 µM; in the series on MCF7 [34], 3.57 µM; in series [35], 119 µM; with HL-60, 0.77 µM. The figures for the IC50 in the series on RS4-11 and in the series with HepG2 [26] were 0.37 µM and 0.63 µM, respectively.

The term IC50 denotes the concentration needed to halve the response being measured. Broadly, the GI50 is the concentration giving 50% growth inhibition. High values mean less potent growth inhibition, low ones more potent growth inhibition.

(Values after ChEMBL document CHEMBL6074649, “An insight into recent developments in imidazole based heterocyclic compounds as anticancer agents: Synthesis, SARs, and mechanism of actions” (Eur J Med Chem, 2024).)
